Laboratory results from patent publication US8796256B2 (Janssen Pharmaceutica NV, priority 2010, dated 2014).

Molecular target: T1, ERR1 (also known as ERR-α or ERR-1) (Homo sapiens, UniProt P11474)
T1 sequence (P11474 193-421 limits assumed): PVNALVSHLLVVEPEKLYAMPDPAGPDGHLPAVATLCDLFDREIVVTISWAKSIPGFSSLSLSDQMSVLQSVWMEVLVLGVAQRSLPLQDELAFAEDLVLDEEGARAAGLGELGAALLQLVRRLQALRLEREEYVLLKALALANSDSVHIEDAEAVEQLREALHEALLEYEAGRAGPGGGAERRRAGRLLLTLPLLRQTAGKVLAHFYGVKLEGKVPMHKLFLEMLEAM
Test: TR-FRET assay (disruption of co-activator peptide binding to ERR1 LBD)
Assay type: biochemical
Settings: 6 nM 6His-ERR1LBD, 6 nM GST-SRC-2 peptide; average of 3 independent experiments
Method in brief: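 His-tagged ERR1 ligand-binding domain and GST-labelled SRC-2 peptide, each 6 nM, equilibrated at 25° C for 4-18 h in Tris pH 8/Hepes/KCl/DTT/delipidated BSA buffer. Compound-induced loss of co-activator binding read as Eu cryptate→XL665 energy transfer; values from hyperbolic curve fits averaged over 3 independent runs.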

| Compound | EC50 [nM] |
| --- | --- |
| NC1(CN2C(=O)S/C(=C\c3ccc4c(cnn4Cc4ccc(Cl)cc4C(F)(F)F)c3)C2=O)CCC1 [Compound 314, (5Z)-3-[(1-Aminocyclobutyl)methyl]-5-({1-[4-chloro-2-(trifluoromethyl)benzyl]-1H-indazol-5-yl}methylidene)-1,3-thiazolidine-2,4-dione] | 830 |
| CN(C)C1(CN2C(=O)S/C(=C\c3ccc4c(cnn4Cc4ccc(Cl)cc4C(F)(F)F)c3)C2=O)CCC1 [Compound 315, (5Z)-5-({1-[4-Chloro-2-(trifluoromethyl)benzyl]-1H-indazol-5-yl}methylidene)-3-{[1-(dimethylamino)cyclobutyl]methyl}-1,3-thiazolidine-2,4-dione] | 71 |
| O=C1S/C(=C\c2ccc3c(cnn3Cc3ccc(Cl)cc3C(F)(F)F)c2)C(=O)N1CCN1CCNS1(=O)=O [Compound 337, (5Z)-5-({1-[4-Chloro-2-(trifluoromethyl)benzyl]-1H-indazol-5-yl}methylidene)-3-[2-(1,1-dioxido-1,2,5-thiadiazolidin-2-yl)ethyl]-1,3-thiazolidine-2,4-dione] | 47 |
| COC(=O)N1CCN(CCN2C(=O)S/C(=C\c3ccc4c(cnn4Cc4ccc(Cl)cc4C(F)(F)F)c3)C2=O)S1(=O)=O [Compound 339, Methyl 5-{2-[(5Z)-5-({1-[4-chloro-2-(trifluoromethyl)benzyl]-1H-indazol-5-yl}methylidene)-2,4-dioxo-1,3-thiazolidin-3-yl]ethyl}-1,2,5-thiadiazolidine-2-carboxylate 1,1-dioxide] | 106 |
| COC(=O)N1CCN(C(=O)CN2C(=O)S/C(=C\c3ccc4c(cnn4Cc4ccc(Cl)cc4C(F)(F)F)c3)C2=O)S1(=O)=O [Compound 340, Methyl 5-{[(5Z)-5-({1-[4-chloro-2-(trifluoromethyl)benzyl]-1H-indazol-5-yl}methylidene)-2,4-dioxo-1,3-thiazolidin-3-yl]acetyl}-1,2,5-thiadiazolidine-2-carboxylate 1,1-dioxide] | 53 |
| O=C1CNCCC1N1C(=O)S/C(=C\c2ccc3c(cnn3Cc3ccc(Cl)cc3C(F)(F)F)c2)C1=O (centres unmarked) [Compound 341, (5Z)-5-({1-[4-Chloro-2-(trifluoromethyl)benzyl]-1H-indazol-5-yl}methylidene)-3-(3-oxopiperidin-4-yl)-1,3-thiazolidine-2,4-dione] | 39 |
| CN1CCC(N2C(=O)S/C(=C\c3ccc4c(cnn4Cc4ccc(Cl)cc4C(F)(F)F)c3)C2=O)C(=O)C1 (centres unmarked) [Compound 342, (5Z)-5-({1-[4-Chloro-2-(trifluoromethyl)benzyl]-1H-indazol-5-yl}methylidene)-3-(1-methyl-3-oxopiperidin-4-yl)-1,3-thiazolidine-2,4-dione] | 65 |
| O=C1CCNCC1N1C(=O)S/C(=C\c2ccc3c(cnn3Cc3ccc(Cl)cc3C(F)(F)F)c2)C1=O (centres unmarked) [Compound 343, (5Z)-5-({1-[4-Chloro-2-(trifluoromethyl)benzyl]-1H-indazol-5-yl}methylidene)-3-(4-oxopiperidin-3-yl)-1,3-thiazolidine-2,4-dione] | 27 |
| CN1CCC(=O)C(N2C(=O)S/C(=C\c3ccc4c(cnn4Cc4ccc(Cl)cc4C(F)(F)F)c3)C2=O)C1 (centres unmarked) [Compound 344, (5Z)-5-({1-[4-Chloro-2-(trifluoromethyl)benzyl]-1H-indazol-5-yl}methylidene)-3-(1-methyl-4-oxopiperidin-3-yl)-1,3-thiazolidine-2,4-dione] | 40 |
| O=C1S/C(=C\c2ccc3c(cnn3Cc3ccc(Cl)cc3C(F)(F)F)c2)C(=O)N1C1CCNCC1(F)F (centres unmarked) [Compound 345, (5Z)-5-({1-[4-Chloro-2-(trifluoromethyl)benzyl]-1H-indazol-5-yl}methylidene)-3-(3,3-difluoropiperidin-4-yl)-1,3-thiazolidine-2,4-dione] | 18 |
| N#Cc1ccc(Cn2ncc3cc(/C=C4\SC(=O)N(CC(=O)O)C4=O)ccc32)c(C(F)(F)F)c1 [Compound 346, [(5Z)-5-({1-[4-Cyano-2-(trifluoromethyl)benzyl]-1H-indazol-5-yl}methylidene)-2,4-dioxo-1,3-thiazolidin-3-yl]acetic acid] | 579 |
| O=C(O)CN1C(=O)S/C(=C\c2ccc3c(cnn3Cc3ccc(Cl)cc3C(F)(F)F)c2F)C1=O [Compound 347, [(5Z)-5-({1-[4-Chloro-2-(trifluoromethyl)benzyl]-4-fluoro-1H-indazol-5-yl}methylidene)-2,4-dioxo-1,3-thiazolidin-3-yl]acetic acid] | 116 |
| O=C(O)CN1C(=O)S/C(=C\c2cc3cnn(Cc4ccc(Cl)cc4C(F)(F)F)c3cc2F)C1=O [Compound 348, [(5Z)-5-({1-[4-Chloro-2-(trifluoromethyl)benzyl]-6-fluoro-1H-indazol-5-yl}methylidene)-2,4-dioxo-1,3-thiazolidin-3-yl]acetic acid] | 7 |
| CN1CCN(N2C(=O)S/C(=C\c3ccc4c(cnn4Cc4ccc(Cl)cc4C(F)(F)F)c3)C2=O)CC1 [Compound 349, (5Z)-5-({1-[4-Chloro-2-(trifluoromethyl)benzyl]-1H-indazol-5-yl}methylidene)-3-(4-methylpiperazin-1-yl)-1,3-thiazolidine-2,4-dione] | 24 |
| CN1CCN(N2C(=O)S/C(=C\c3ccc4c(cnn4Cc4ccc(C(F)(F)F)cc4C(F)(F)F)c3)C2=O)CC1 [Compound 350, (5Z)-5-({1-[2,4-Bis(trifluoromethyl)benzyl]-1H-indazol-5-yl}methylidene)-3-(4-methylpiperazin-1-yl)-1,3-thiazolidine-2,4-dione] | 38 |
| O=C1S/C(=C\c2ccc3c(cnn3Cc3ccc(Cl)cc3C(F)(F)F)c2)C(=O)N1N1CCNCC1 [Compound 351, (5Z)-5-({1-[4-Chloro-2-(trifluoromethyl)benzyl]-1H-indazol-5-yl}methylidene)-3-piperazin-1-yl-1,3-thiazolidine-2,4-dione] | 22 |
| COCCN1CCN(N2C(=O)S/C(=C\c3ccc4c(cnn4Cc4ccc(Cl)cc4C(F)(F)F)c3)C2=O)CC1 [Compound 352, (5Z)-5-({1-[4-Chloro-2-(trifluoromethyl)benzyl]-1H-indazol-5-yl}methylidene)-3-[4-(2-methoxyethyl)piperazin-1-yl]-1,3-thiazolidine-2,4-dione] | 25 |
| NC(=O)CN1CCN(N2C(=O)S/C(=C\c3ccc4c(cnn4Cc4ccc(Cl)cc4C(F)(F)F)c3)C2=O)CC1 [Compound 353, 2-{4-[(5Z)-5-({1-[4-Chloro-2-(trifluoromethyl)benzyl]-1H-indazol-5-yl}methylidene)-2,4-dioxo-1,3-thiazolidin-3-yl]piperazin-1-yl}acetamide] | 11 |
| O=C1S/C(=C\c2ccc3c(cnn3Cc3ccc(Cl)cc3C(F)(F)F)c2)C(=O)N1N1CCN(CCO)CC1 [Compound 354, (5Z)-5-({1-[4-Chloro-2-(trifluoromethyl)benzyl]-1H-indazol-5-yl}methylidene)-3-[4-(2-hydroxyethyl)piperazin-1-yl]-1,3-thiazolidine-2,4-dione] | 17 |
| NN1C(=O)S/C(=C\c2ccc3c(cnn3Cc3ccc(Cl)cc3C(F)(F)F)c2)C1=O [Compound 355, (5Z)-3-Amino-5-({1-[4-chloro-2-(trifluoromethyl)benzyl]-1H-indazol-5-yl}methylidene)-1,3-thiazolidine-2,4-dione] | 20 |
